Experimental data reported in US20040152596A1, “Coated seed and process for coating a seed” (priority 2001, published 2004).

Experiments:
Tomato = details: for Emergence percentage: fertilizer 10% of seed weight, fixing agent 2% of seed weight
Description: (§1) A number of tests were carried out with the purpose of finding for various plant species the optimal fertilizer and the optimal fertilizer amount in terms of emergence. […] The fixing agent was used in an amount of 2% of the weight of the seeds. […] These percentages are % by weight, calculated from the seed weight.

[1] = fertilizer 4% of seed weight, fixing agent 2% of seed weight

Description for Barley: as §1
Description for Pea: A number of tests were carried out with the purpose of finding for various plant species the optimal fertilizer and the optimal fertilizer amount in terms of emergence. […] The fixing agent was used in an amount of 2% of the weight of the seeds. […] (DCP) or urea phosphate (UP). […] These percentages are % by weight, calculated from the seed weight.
The results of the emergence tests are shown in Table 2, wherein the numeric values indicate the emergence percentage.
Description for Rape: as §1
Description for Sunflower: as §1
Description for Wheat: as §1

Row | SMILES | Combined effect in terms of plant emergence and phosphorus uptake (Barley) | Emergence percentage (Barley; fertilizer 6% of seed weight, fixing agent 2% of seed weight) [%] | Combined effect in terms of plant emergence and phosphorus uptake (Wheat) | Emergence percentage (Wheat; [1]) [%] | Combined effect in terms of plant emergence and phosphorus uptake (Sunflower) | Emergence percentage (Sunflower; fertilizer 10% of seed weight, fixing agent 2% of seed weight) [%] | Emergence percentage (Rape; fertilizer 8% of seed weight, fixing agent 2% of seed weight) | Emergence percentage (Pea; [1]) | Combined effect in terms of plant emergence and phosphorus uptake (Tomato) | Emergence percentage (Tomato) [%] | Suitability of phosphorus fertilizer as seed coating (emergence table) (Barley) | Suitability of phosphorus fertilizer as seed coating (emergence table) (Wheat) | Suitability of phosphorus fertilizer as seed coating (emergence table) (Sunflower) | Suitability of phosphorus fertilizer as seed coating (emergence table) (Rape) | Suitability of phosphorus fertilizer as seed coating (emergence table) (Pea)
1 | O=P([O-])(O)O.[K+] [MKP, monopotassium phosphate] | best combined effect | 93 | best combined effect | 85 | best combined effect | 87 | 85 (8%) | 95 (4%) | best combined effect | 80 | – | – | – | – | –
2 | NC(N)=O.O=P(O)(O)O [UP, urea phosphate] | – | – | – | – | – | – | – | – | best combined effect | 82 | Not suitable | Not suitable | Not suitable | Not suitable | Not suitable
